From publication PMC6767909 (Journal of medicinal chemistry, 2019)
pIC50: −log10 of the molar value. Where two headings read alike, the source gives them in different places. Each block holds one molecule with its values, some of them ahead of it.

Tests used:
human GIVA cPLA2 = biological target: T1, human GIVA cPLA2 (Homo sapiens, UniProt P47712); assay: lipidomics-based mixed micelle assay, GIVA cPLA2; format: biochemical; conditions: for GIVA cPLA2 XI(50): separated trans/cis diastereomers, lipidomics-based assay
T1 sequence (P47712 1-749): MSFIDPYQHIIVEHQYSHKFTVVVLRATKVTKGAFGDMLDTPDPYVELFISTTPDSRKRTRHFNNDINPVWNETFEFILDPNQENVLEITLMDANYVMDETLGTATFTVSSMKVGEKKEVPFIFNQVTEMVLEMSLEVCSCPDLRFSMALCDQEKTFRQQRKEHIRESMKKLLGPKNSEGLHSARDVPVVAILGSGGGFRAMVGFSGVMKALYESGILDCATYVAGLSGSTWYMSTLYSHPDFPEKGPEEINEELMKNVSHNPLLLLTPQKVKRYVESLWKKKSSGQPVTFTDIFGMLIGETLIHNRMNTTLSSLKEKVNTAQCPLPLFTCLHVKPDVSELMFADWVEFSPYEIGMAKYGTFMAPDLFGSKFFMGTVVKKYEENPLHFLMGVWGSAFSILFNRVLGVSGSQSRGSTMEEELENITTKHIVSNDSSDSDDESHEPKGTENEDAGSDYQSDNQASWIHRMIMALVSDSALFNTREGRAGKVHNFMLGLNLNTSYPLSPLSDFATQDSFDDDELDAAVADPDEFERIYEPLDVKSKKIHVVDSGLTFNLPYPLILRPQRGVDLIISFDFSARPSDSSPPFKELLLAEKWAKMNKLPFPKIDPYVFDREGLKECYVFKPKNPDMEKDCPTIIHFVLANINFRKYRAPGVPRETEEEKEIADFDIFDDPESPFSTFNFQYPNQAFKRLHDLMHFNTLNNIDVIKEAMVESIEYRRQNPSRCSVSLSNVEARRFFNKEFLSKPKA

INS-1 cells = format: cell-based
[1] = biological target: T2, recombinant human GVIA iPLA2 (Homo sapiens, UniProt O60733); assay: lipidomics-based mixed micelle assay, GVIA iPLA2; format: biochemical
T2 sequence (O60733 1-806): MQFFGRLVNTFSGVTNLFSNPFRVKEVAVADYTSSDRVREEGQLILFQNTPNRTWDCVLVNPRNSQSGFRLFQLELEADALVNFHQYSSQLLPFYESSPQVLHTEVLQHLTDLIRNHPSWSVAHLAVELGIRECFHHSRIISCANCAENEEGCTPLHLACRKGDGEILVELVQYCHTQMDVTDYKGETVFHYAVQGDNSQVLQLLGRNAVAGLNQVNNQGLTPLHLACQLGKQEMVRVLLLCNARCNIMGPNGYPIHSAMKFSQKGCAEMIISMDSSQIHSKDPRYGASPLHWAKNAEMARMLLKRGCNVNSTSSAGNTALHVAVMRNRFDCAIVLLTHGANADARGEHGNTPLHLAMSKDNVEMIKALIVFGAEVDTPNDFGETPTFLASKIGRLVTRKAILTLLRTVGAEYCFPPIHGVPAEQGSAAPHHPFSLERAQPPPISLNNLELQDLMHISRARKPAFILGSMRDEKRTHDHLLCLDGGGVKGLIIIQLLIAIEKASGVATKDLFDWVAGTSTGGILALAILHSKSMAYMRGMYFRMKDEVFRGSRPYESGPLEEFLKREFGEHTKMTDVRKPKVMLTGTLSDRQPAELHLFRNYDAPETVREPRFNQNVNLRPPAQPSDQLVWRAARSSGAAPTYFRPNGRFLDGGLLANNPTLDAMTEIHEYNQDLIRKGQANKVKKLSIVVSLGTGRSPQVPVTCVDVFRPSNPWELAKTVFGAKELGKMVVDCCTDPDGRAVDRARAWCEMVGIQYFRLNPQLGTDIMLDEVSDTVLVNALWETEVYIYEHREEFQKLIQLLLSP

[2] = biological target: T2, recombinant human GVIA iPLA2; conditions: cited from earlier work; for GVIA iPLA2 XI(50): radioactivity-based assay
β-cell = conditions: cited from earlier work

Structure (SMILES): O=C(CCCCc1ccc2ccccc2c1)C(F)(F)F [compound 3]
- times more potent for GVIA iPLA2 than for GIVA cPLA2 [2]: 195 times
- times more potent for GVIA iPLA2 than for GV sPLA2 [2]: > 455 times
- inhibition of β-cell apoptosis (β-cell): able to inhibit β-cell apoptosis

Structure (SMILES): COc1ccc(CCSCC(=O)c2noc(C(C)(C)C)n2)cc1 [compound 4]
- GVIA iPLA2 XI(50) [2]: 0.0057 mole fraction

Structure (SMILES): O=C(CCCCc1ccccc1)C(F)(F)C(F)(F)F [2a]
- GVIA iPLA2 XI(50) ([2]; listed as FKGK11): 0.0014 mole fraction

Structure (SMILES): COc1ccc(CCCCC(=O)C(F)(F)C(F)(F)F)cc1 [2b]
- GVIA iPLA2 XI(50) ([2]; listed as GK187): 0.0001 mole fraction

More lines, main results first:

- GIVA cPLA2 XI(50) (human GIVA cPLA2): 0.042 mole fraction
- times more active against GVIA iPLA2 than GIVA cPLA2 (selectivity) ([1]; GVIA iPLA2 over GIVA cPLA2): 22,000 times
- potency on GVIA iPLA2 relative to FKGK18 ([1]; compared with fluoroketone FKGK18): a hundred times more potent
Structure (SMILES): CCC[C@H]1OC(=O)[C@@H]1CCCCc1ccccc1 (racemic) [trans-9k, trans-(±)-3-(4-Phenylbutyl)-4-propyloxetan-2-one]
- inhibition (decrease) of cytokine-induced β-cell apoptosis (INS-1 cells; 0.10 μM, co-treatment with IL-1β + IFNγ, 16 h): minimal and non-significant effect
- cytotoxicity on continuous exposure, compound alone (INS-1 cells; 0.10 or 1.0 μM, no cytokines): not cytotoxic

- pIC50 [1]: 7.02
Structure (SMILES): CCC[C@H]1OC(=O)[C@@H]1CCCc1ccc(OC)cc1 (racemic) [trans-9f, trans-(±)-3-(3-(4-Methoxyphenyl)propyl)-4-propyloxetan-2-one]

- pIC50 (human GIVA cPLA2): 6.02
- GIVA cPLA2 XI(50) (human GIVA cPLA2): 0.0019 mole fraction
Structure (SMILES): CCC[C@@H]1OC(=O)[C@@H]1CCCc1ccccc1 (racemic) [cis-9d, cis-(±)-3-(3-Phenylpropyl)-4-propyloxetan-2-one]

- pIC50 [1]: 7.02
Structure (SMILES): CCC[C@H]1OC(=O)[C@@H]1CCCc1ccccc1 (racemic) [trans-9d, trans-(±)-3-(3-Phenylpropyl)-4-propyloxetan-2-one]

- pIC50 (human GIVA cPLA2): 7.70
- times more potent for GIVA cPLA2 than for GVIA iPLA2 (human GIVA cPLA2; GIVA cPLA2 over GVIA iPLA2): ~1000 times
- GIVA cPLA2 XI(50) (human GIVA cPLA2): 0.00004 mole fraction
- pIC50 [1]: 4.70
Structure (SMILES): CCC[C@@H]1OC(=O)[C@@H]1CCCc1ccc(OC)cc1 (racemic) [cis-9f, cis-(±)-3-(3-(4-Methoxyphenyl)propyl)-4-propyloxetan-2-one]

- pIC50 [1]: 6.82
Structure (SMILES): CCC[C@H]1OC(=O)[C@@H]1CCCc1ccc2ccccc2c1 (racemic) [trans-9e, trans-(±)-3-(3-(Naphthalen-2-yl)propyl)-4-propyloxetan-2-one]

- pIC50 [1]: 6.00
Structure (SMILES): CCC[C@@H]1OC(=O)[C@@H]1CCCCc1ccc2ccccc2c1 (racemic) [cis-9j, cis-(±)-3-(4-(Naphthalen-2-yl)butyl)-4-propyloxetan-2-one]
